Assay results: US20190054019A1, “METHODS FOR USING REGULATORS FOR INCREASING THE EXPRESSION OR ACTIVATION OF P53 AND/OR REGULATORS FOR REDUCING OR INHIBITING THE EXPRESSION OF P63-ALPHA, FOR THE TREATMENT OF NON-ALCOHOLIC FATTY LIVER DISEASE (NAFLD) AND/OR NON-ALCOHOLIC STEATOHEPATITIS (NASH)” (Universidade de Santiago de Compostela, priority 2015, published 2019)
Blank lines part the entries; values can stand above or below the molecule they belong to.

Assays:
HepG2 = assay: Accumulation of lipids induced by oleic acid in human hepatocytes (HepG2); type: cell-based; conditions: 48 h
Description: The hepatocyte cell line of human origin HepG2 was treated with bovine serum albumin (BSA, which represents the control group), oleic acid (OA) and 50 nM oleic acid+doxorubicin for 48 h.

HepG2 cells = assay: Response of HepG2 cells (control or p53 negative dominant) to etoposide; type: cell-based, human
From the text: FIG. 9. Effect of p53 silencing in HepG2 cells. (A) Efficiency of the down-regulation of p53 in HepG2 cells transfected with adenoviruses expressing GFP alone or adenoviruses encoding a p53 negative dominant. (B) Oil red staining in HepG2 cells treated with etoposide at different concentrations. (C) Representative western blot of protein levels of peIF2α and Xbp1 in HepG2 cells non-treated and treated with etoposide. *p<0.05, n=4 per group.
HepG2 cells were infected with adenoviruses expressing GFP alone or adenoviruses encoding a p53 negative dominant and treated with etoposide.
HepG2 cells were infected with adenoviruses expressing GFP alone or adenoviruses encoding a p53 negative dominant. Infection efficiency was assessed by decreased expression of phosphor-p53 (pp53) (FIG. 9A). In order to investigate the response of control cells and cells with silenced p53, we challenged them to etoposide, a well established compound that induces stress.

[1] = system: mice of the C57/B6 strain fed with a HFD; assay: Doxorubicin in C57/B6 mice fed HFD (60% fat); type: in vivo; conditions: 0.6 mg/kg i.p. twice per week, two months
Description: Subsequently, mice were administered a dose of 0.6 mg/kg intra-peritoneally twice per week during a further period of two months.

[2] = Doxorubicin intraperitoneal for 5 days in Swiss mice on standard diet: body weight; type: in vivo, mice of the Swiss strain
[3] = HepG2 cells treated with etoposide
[4] = 0.6 mg/kg i.p. twice per week, 2 months
[5] = 0.6 mg/kg, two months, vs control vehicle

SMILES: CCCCCCCC/C=C\CCCCCCCC(=O)O [oleic acid]
amount of lipids in the cells vs BSA control (HepG2; oleic acid): significantly increases the amount of lipids

SMILES: COc1cc([C@@H]2c3cc4c(cc3[C@@H](O[C@@H]3O[C@@H]5CO[C@@H](C)O[C@H]5[C@H](O)[C@H]3O)[C@H]3COC(=O)[C@H]23)OCO4)cc(OC)c1O [etoposide]
ER stress markers peIF2α and XBP1 in cells with silenced p53 vs control cells (HepG2 cells; [3]): higher levels | amount of lipid droplets in p53 dominant negative-infected cells vs control cells (HepG2 cells; [3]): increased amount of lipid droplets | lipid deposition (oil red staining) (HepG2 cells; HepG2 cells, dose-dependent): increased lipid deposition

body composition: muscle mass (HFD-induced obese mice; [4]): without altering the muscle mass
SMILES: COc1cccc2c1C(=O)c1c(O)c3c(c(O)c1C2=O)C[C@@](O)(C(=O)CO)C[C@@H]3O[C@H]1C[C@H](N)[C@H](O)[C@H](C)O1 [doxorubicin]
amount of lipids in the cells vs cells treated with oleic acid (HepG2; 50 nM oleic acid+doxorubicin): significant decrease in the amount of lipids | body weight [1]: reduced their body weight significantly | hepatic tryglicerides [1]: significantly reduced | body weight change ([2]; 0.3, 0.6, 1.25, 2.5 and 5 mg/kg intraperitoneal, 1 injection/day, dose dependent): significant loss of weight | dosages capable of reducing the body weight significantly ([2]; intraperitoneal): ≥ 0.6 mg/kg | body composition: quantity of fat (HFD-induced obese mice; [4]): reduce quantity of fat | levels of troponine (marker of cardiovascular damage) (HFD-induced obese mice; 0.6 mg/kg i.p., serum): fails to significantly increase | hepatic damage (histological study) (HFD-induced obese mice; 0.6 mg/kg, two months): reduced hepatic damage | liver expression of inflammatory markers TNF-α, arginase, IL-6, NOS2 and F480 (HFD-induced obese mice; 0.6 mg/kg, two months, mRNA): reduces the expression | level of non-esterified fatty acids in the liver (HFD-induced obese mice; [5]): increased | level of triglycerides in the liver (HFD-induced obese mice; [5]): reduced | liver protein levels of ER stress genes pIRE, XBP1, CHOP, pJNK (HFD-induced obese mice; 0.6 mg/kg, two months, western blot): reduced the protein levels | body weight (HFD-induced obese mice; all studied dosages (0.15, 0.3, 0.6, 1.25 mg/kg) i.p. twice per week, 2 months): significant loss of body weight
